In patent publication US10106534B2 (CELGENE QUANTICEL RESEARCH, INC., priority 2014, dated 2018):

Assays:
JMJD3 = JMJD3 (Homo sapiens, UniProt O15054); test: In vitro enzyme inhibition assay for JMJD3 activity (TR-FRET); type: biochemical
Procedure: This assay determines the ability of a test compound to inhibit JMJD3 demethylase activity.
The enzymatic assay of JMJD3 activity is based upon Time Resolved-Fluorescence Resonance Energy Transfer (TR-FRET) detection. […] Reaction product was determined quantitatively by TR-FRET after the addition of detection reagent Phycolink Streptavidin-allophycocyanin (Prozyme) and Europium-anti-di-methylated histone H3 lysine 27 (H3K27me2) antibody (PerkinElmer) in the presence of 5 mM EDTA in LANCE detection buffer (PerkinElmer) at a final concentration of 50 nM and 1 nM, respectively.
The reaction mixture was incubated at room temperature for 30 minutes, and terminated by the addition of 6 μL of 5 mM EDTA in LANCE detection buffer containing 100 nM Phycolink Streptavidin-allophycocyanin and 2 nM Europium-anti-H3K27me2 antibody.

JMJD2C = JMJD2C (Homo sapiens (Human), UniProt Q9H3R0); test: In vitro enzyme inhibition assay for JMJD2C activity (TR-FRET); type: biochemical
Procedure, shortened: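 Baculovirus JMJD2C (AA 2-372), 0.3 nM, with 300 nM biotin-H3K9me3 peptide and 2 μM α-ketoglutarate in HEPES pH 7.3 containing Fe(II) and ascorbate, 30 min at room temperature, 11-point dilutions. H3K9me2 product by TR-FRET (Eu-antibody/streptavidin-APC, 665/615 ratio); IC50 fitted.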

[1] = test system: KYSE-150 esophageal carcinoma cell line; test: In vitro cell-based assay: cellular proliferation via BrdU incorporation (ELISA); design: species or system human; settings: Homo sapiens, KYSE-150, 168 hours compound incubation
Procedure, shortened: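 KYSE-150 cells (JMJD2C-amplified; SMAD4 and TP53 mutant), 2,000/well, were treated after overnight attachment with an 11-point series (100 μM to 2 nM) for 168 h. Proliferation was read by BrdU ELISA (2 h labelling, anti-BrdU-peroxidase, TMB, 450 nm) and IC50 fitted.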

Sequence of JMJD2C (Q9H3R0 2-372): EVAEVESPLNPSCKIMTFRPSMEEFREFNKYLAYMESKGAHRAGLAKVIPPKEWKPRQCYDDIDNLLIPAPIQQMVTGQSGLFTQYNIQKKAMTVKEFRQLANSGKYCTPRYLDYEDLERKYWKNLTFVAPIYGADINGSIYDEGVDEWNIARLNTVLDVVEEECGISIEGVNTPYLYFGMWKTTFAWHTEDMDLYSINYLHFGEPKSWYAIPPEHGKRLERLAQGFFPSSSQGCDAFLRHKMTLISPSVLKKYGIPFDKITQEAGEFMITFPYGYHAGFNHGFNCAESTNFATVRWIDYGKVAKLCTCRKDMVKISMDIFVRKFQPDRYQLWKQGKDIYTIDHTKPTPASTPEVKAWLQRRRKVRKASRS

Row | IC50 (JMJD3) [nM] | IC50 (JMJD2C) [nM] | IC50 [1] [nM] | Compound
1 | 1000 to 10000 | 100 to 1000 | ≤ 100 | CN(c1ccc2c(c1)CCC[C@H]2CNc1cnccc1C(=O)O)c1ccccn1 [Example 11, 3-({[(1R)-6-[methyl(pyridin-2-yl)amino]-1,2,3,4-tetrahydronaphthalen-1-yl]methyl}amino)pyridine-4-carboxylic acid]
2 | 1000 to 10000 | 100 to 1000 | 100 to 1000 | O=C(O)c1ccncc1NCC1CCOc2cc(N3CCCc4ccccc43)ccc21 (stereo not shown) [Example 16, 3-({[7-(1,2,3,4-tetrahydroquinolin-1-yl)-3,4-dihydro-2H-1-benzopyran-4-yl]methyl}amino)pyridine-4-carboxylic acid]
3 | 1000 to 10000 | 100 to 1000 | 100 to 1000 | O=C(O)c1ccncc1NCC1CCOc2cc(N3CCc4ccccc43)ccc21 (stereo not shown) [Example 17, 3-({[7-(2,3-dihydro-1H-indol-1-yl)-3,4-dihydro-2H-1-benzopyran-4-yl]methyl}amino)pyridine-4-carboxylic acid]
4 | 100 to 1000 | 100 to 1000 | ≤ 100 | CN(c1ccccc1)c1ccc2c(c1)OCC[C@H]2CNc1cnccc1C(=O)O [Example 18, 3-({[(4R)-7-[methyl(phenyl)amino]-3,4-dihydro-2H-1-benzopyran-4-yl]methyl}amino)pyridine-4-carboxylic acid]
5 | 1000 to 10000 | 100 to 1000 | ≤ 100 | CN(c1cccc(F)c1)c1ccc2c(c1)OCC[C@H]2CNc1cnccc1C(=O)O [Example 20, 3-({[(4R)-7-[(3-fluorophenyl)(methyl)amino]-3,4-dihydro-2H-1-benzopyran-4-yl]methyl}amino)pyridine-4-carboxylic acid]
6 | 1000 to 10000 | 100 to 1000 | ≤ 100 | CN(c1ccc(F)cc1)c1ccc2c(c1)OCC[C@H]2CNc1cnccc1C(=O)O [Example 21, 3-({[(4R)-7-[(4-fluorophenyl)(methyl)amino]-3,4-dihydro-2H-1-benzopyran-4-yl]methyl}amino)pyridine-4-carboxylic acid]
7 | 1000 to 10000 | 100 to 1000 | ≤ 100 | Cc1ccc(N(C)c2ccc3c(c2)OCC[C@H]3CNc2cnccc2C(=O)O)cc1 [Example 22, 3-({[(4R)-7-[methyl(4-methylphenyl)amino]-3,4-dihydro-2H-1-benzopyran-4-yl]methyl}amino)pyridine-4-carboxylic acid]
8 | 1000 to 10000 | 100 to 1000 | ≤ 100 | CN(c1ccc(Cl)cc1)c1ccc2c(c1)OCC[C@H]2CNc1cnccc1C(=O)O [Example 23, 3-({[(4R)-7-[(4-chlorophenyl)(methyl)amino]-3,4-dihydro-2H-1-benzopyran-4-yl]methyl}amino)pyridine-4-carboxylic acid]
9 | 1000 to 10000 | 100 to 1000 | ≤ 100 | CCN(c1ccccc1)c1ccc2c(c1)OCC[C@H]2CNc1cnccc1C(=O)O [Example 24, 3-({[(4R)-7-[ethyl(phenyl)amino]-3,4-dihydro-2H-1-benzopyran-4-yl]methyl}amino)pyridine-4-carboxylic acid]
10 | 1000 to 10000 | 100 to 1000 | 1000 to 10000 | CN(c1ccccc1)c1ccc2c(n1)CCCC2CNc1cnccc1C(=O)O (stereo not shown) [Example 26, 3-[({2-[methyl(phenyl)amino]-5,6,7,8-tetrahydroquinolin-5-yl}methyl)amino]pyridine-4-carboxylic acid]
11 | < 100 | 100 to 1000 | 1000 to 10000 | O=C(O)c1ccncc1NCC1CCOc2cc(-c3ccoc3)ccc21 (stereo not shown) [Example 28, 3-({[7-(furan-3-yl)-3,4-dihydro-2H-1-benzopyran-4-yl]methyl}amino)pyridine-4-carboxylic acid]
12 | 100 to 1000 | 1000 to 10000 | – | Cc1ccc(-c2ccc3c(c2)OCC[C@@H]3CNc2cnccc2C(=O)O)cc1 [Example 31, 3-({[(4S)-7-(4-methylphenyl)-3,4-dihydro-2H-1-benzopyran-4-yl]methyl}amino)pyridine-4-carboxylic acid]
13 | < 100 | 1000 to 10000 | – | O=C(O)c1ccncc1NC[C@H]1CCOc2cc(-c3ccsc3)ccc21 [Example 33, 3-({[(4S)-7-(thiophen-3-yl)-3,4-dihydro-2H-1-benzopyran-4-yl]methyl}amino)pyridine-4-carboxylic acid]
14 | 1000 to 10000 | 100 to 1000 | 100 to 1000 | O=C(O)c1ccncc1NC[C@@H]1CCOc2cc(-c3ccsc3)ccc21 [Example 34, 3-({[(4R)-7-(thiophen-3-yl)-3,4-dihydro-2H-1-benzopyran-4-yl]methyl}amino)pyridine-4-carboxylic acid]
15 | 100 to 1000 | 1000 to 10000 | – | Cc1sccc1-c1ccc2c(c1)OCC[C@@H]2CNc1cnccc1C(=O)O [Example 36, 3-({[(4S)-7-(2-methylthiophen-3-yl)-3,4-dihydro-2H-1-benzopyran-4-yl]methyl}amino)pyridine-4-carboxylic acid]
16 | 1000 to 10000 | 1000 to 10000 | 100 to 1000 | Cc1sccc1-c1ccc2c(c1)OCC[C@H]2CNc1cnccc1C(=O)O [Example 37, 3-({[(4R)-7-(2-methylthiophen-3-yl)-3,4-dihydro-2H-1-benzopyran-4-yl]methyl}amino)pyridine-4-carboxylic acid]
17 | 100 to 1000 | 1000 to 10000 | – | O=C(O)c1ccncc1NC[C@H]1CCOc2cc(-c3ccccc3Cl)ccc21 [Example 39, 3-({[(4S)-7-(2-chlorophenyl)-3,4-dihydro-2H-1-benzopyran-4-yl]methyl}amino)pyridine-4-carboxylic acid]
18 | 1000 to 10000 | 100 to 1000 | ≤ 100 | O=C(O)c1ccncc1NC[C@@H]1CCOc2cc(-c3ccccc3Cl)ccc21 [Example 40, 3-({[(4R)-7-(2-chlorophenyl)-3,4-dihydro-2H-1-benzopyran-4-yl]methyl}amino)pyridine-4-carboxylic acid]
19 | 100 to 1000 | 1000 to 10000 | – | O=C(O)c1ccncc1NC[C@H]1CCOc2cc(Sc3cccc(F)c3)ccc21 [Example 52, 3-({[(4S)-7-[(3-fluorophenyl)sulfanyl]-3,4-dihydro-2H-1-benzopyran-4-yl]methyl}amino)pyridine-4-carboxylic acid]
20 | 100 to 1000 | 1000 to 10000 | – | O=C(O)c1ccncc1NC[C@H]1CCOc2cc(Sc3ccc(F)cc3)ccc21 [Example 54, 3-({[(4S)-7-[(4-fluorophenyl)sulfanyl]-3,4-dihydro-2H-1-benzopyran-4-yl]methyl}amino)pyridine-4-carboxylic acid]
21 | 1000 to 10000 | 100 to 1000 | 100 to 1000 | O=C(O)c1ccncc1NC[C@@H]1CCOc2cc(Sc3ccc(F)cc3)ccc21 [Example 55, 3-({[(4R)-7-[(4-fluorophenyl)sulfanyl]-3,4-dihydro-2H-1-benzopyran-4-yl]methyl}amino)pyridine-4-carboxylic acid]
22 | 1000 to 10000 | 100 to 1000 | ≤ 100 | Cc1ccc(Oc2ccc3c(c2)CCC[C@H]3CNc2cnccc2C(=O)O)c(F)c1 [Example 66, 3-({[(1R)-6-(2-fluoro-4-methylphenoxy)-1,2,3,4-tetrahydronaphthalen-1-yl]methyl}amino)pyridine-4-carboxylic acid]
23 | 100 to 1000 | 100 to 1000 | 1000 to 10000 | COc1ccc2c(c1C)CCC[C@H]2CNc1cnccc1C(=O)O [Example 99, 3-({[(1R)-6-methoxy-5-methyl-1,2,3,4-tetrahydronaphthalen-1-yl]methyl}amino)pyridine-4-carboxylic acid]
24 | 1000 to 10000 | 100 to 1000 | ≤ 100 | Cc1ccc(N(C)c2ccc3c(c2)CCC[C@H]3CNc2cnccc2C(=O)O)nc1 [Example 122, 3-({[(1R)-6-[methyl(5-methylpyridin-2-yl)amino]-1,2,3,4-tetrahydronaphthalen-1-yl]methyl}amino)pyridine-4-carboxylic acid]
25 | 1000 to 10000 | 100 to 1000 | ≤ 100 | Cc1cccc(N(C)c2ccc3c(c2)CCC[C@H]3CNc2cnccc2C(=O)O)n1 [Example 123, 3-({[(1R)-6-[methyl(6-methylpyridin-2-yl)amino]-1,2,3,4-tetrahydronaphthalen-1-yl]methyl}amino)pyridine-4-carboxylic acid]
26 | 1000 to 10000 | 100 to 1000 | – | O=C(O)c1ccncc1NC[C@@H]1CCOc2cc(-c3ccccc3O)ccc21 [Example 138, 3-({[(4R)-7-(2-hydroxyphenyl)-3,4-dihydro-2H-1-benzopyran-4-yl]methyl}amino)pyridine-4-carboxylic acid]
27 | 1000 to 10000 | 100 to 1000 | – | CN(c1ccc(OC(F)(F)F)cc1)c1ccc2c(c1)OCC[C@H]2CNc1cnccc1C(=O)O [Example 182, 3-({[(4R)-7-{methyl[4-(trifluoromethoxy)phenyl]amino}-3,4-dihydro-2H-1-benzopyran-4-yl]methyl}amino)pyridine-4-carboxylic acid]

Row | Compound | IC50 (JMJD3) [nM] | IC50 (JMJD2C) [nM] | IC50 [1] [nM]
28 | O=C(O)c1ccncc1NCC1CCCc2nc(-c3ccccc3)ccc21 (stereo not shown) [Example 25] | 100 to 1000 | 100 to 1000 | > 10000
